T1: BT_1526 MIPS (Bacteroides thetaiotaomicron, UniProt Q8A7J8)
T1 construct: full-length wild-type ORF (synthetic gene), pET-28a, N-terminal His6 tag, E. coli BL21(DE3); HisTrap and Superdex S200; tetramer in crystal
T1 sequence (Q8A7J8 1-429): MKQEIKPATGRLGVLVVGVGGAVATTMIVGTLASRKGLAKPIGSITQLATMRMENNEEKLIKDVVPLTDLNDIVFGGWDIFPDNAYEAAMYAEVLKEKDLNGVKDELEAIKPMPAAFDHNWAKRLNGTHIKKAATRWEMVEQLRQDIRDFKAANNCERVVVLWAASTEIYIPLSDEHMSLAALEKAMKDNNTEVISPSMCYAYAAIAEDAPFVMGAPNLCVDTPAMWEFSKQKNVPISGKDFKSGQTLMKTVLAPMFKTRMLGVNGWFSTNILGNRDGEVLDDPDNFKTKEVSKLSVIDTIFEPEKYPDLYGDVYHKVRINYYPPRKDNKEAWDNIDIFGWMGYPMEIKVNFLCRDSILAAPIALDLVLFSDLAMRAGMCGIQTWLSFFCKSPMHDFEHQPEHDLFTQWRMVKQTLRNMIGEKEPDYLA

B1: BT_1526 myo-inositol phosphate synthase (MIPS) of Bacteroides thetaiotaomicron (enzyme, UniProt Q8A7J8 1-429, looked up)
chain: T1 sequence (Q8A7J8 1-429)
notes: myo-inositol phosphate synthase BT_1526 of Bacteroides thetaiotaomicron VPI-5482; synthetic gene encoding the BT_1526 open reading frame (wild type) in pET-28a; No cleavage of the His tag is described; also called BT_1526 MIPS; BT MIP synthase; source: E. coli BL21 (DE3), purified (HisTrap, Superdex S200 size-exclusion chromatography)

What was measured:
BT_1526 MIPS = biological target: T1, BT_1526 MIPS; assay: X-ray crystal structure, […] Å; conditions: cofactor binding site; crystals grown at pH 6.5, 20 °C
[1] = biological target: the molecule itself; assay: crystal structure; sitting drop vapour diffusion, 20 °C; 200 mM sodium formate, 100 mM bis tris propane pH 6.5, 20% (w/v) PEG 3350; protein at 11.4 mg/ml; MIPS:NAD complex

| Molecule | X-ray crystal structure, 2.0 Å (BT_1526 MIPS) | stoichiometry N [1] |
| --- | --- | --- |
| NC(=O)c1ccc[n+]([C@@H]2O[C@H](COP(=O)(O)OP(=O)(O)OC[C@H]3O[C@@H](n4cnc5c(N)ncnc54)[C@H](O)[C@@H]3O)[C@@H](O)[C@H]2O)c1 [NAD, NAD+] | the structure of the MIPS:NAD complex in the cofactor binding site | – |
| B1 | – | 4 |
